Laboratory results taken from patent US4617394A, “4-methyl-5-(unsubstituted and substituted phenoxy)-2,6-dimethoxy-8-(aminoalkylamino) quinolines” (priority 1985, dated 1986).
Values joined by “and” are separate entries in the source; they are usually repeats but may differ in a detail not shown here. Equal values may be shown once. “Also recorded” adds a separate entry of the source. Read-outs that look alike come from different tables or passages of the source.

Assays:
[1] = system: Plasmodium berghei KBG 173; assay: animal or person; type: in vivo, young ICR/HA Swiss mice; conditions: Table 4; for ΔMST: 5 mice
From the text: Blood Schizonticidal Test (Mouse), University of Miami, Rane (suppressive)
This system is based on comparisons of responses to test compounds by Plasmodium berghei KBG 173 malaria in mice as expressed in mean survival times and the mean survival times of untreated controls. Thus, compounds noted as active produce increases in the survival times of the treated animals that are significant when compared with the survival times of untreated controls. Since an established disease is less sensitive to treatment than a disease in the early stages of development, treatment is withheld until the parasitemia is relatively high in order to insure a more reliable assay of activity and the selection of appropriate compounds for intensive preclinical studies.
Utilizing young ICR/HA Swiss mice and a standard inoculum of Plasmodium berghei KBG 173, it is possible to produce a uniform disease fatal to 100% of untreated animals within 6 to 8 days with a mean survival time of 6.2 days. Test animals weigh from 18 to 22 grams but weight variations in any given experimental or control group are confined to 2 to 3 grams. All animals in any given test are approximately of the same age. Animals on test are housed in metal-topped plastic cages, given a standard laboratory diet and water ad libitum.
Test animals receive an intraperitoneal injection of 0.5 ml of 1:100 dilution of heparinized heart's blood with a minimum of 90% parasitized cells (4×10^7 cells), drawn from donor mice infected one week earlier with Plasmodium berghei. The donor strain is maintained by weekly passages in separate groups of mice inoculated with a 0.5 ml of 1:500 dilution of heparinized heart's blood.
Test compounds are administered after dissolution or suspension in peanut oil. A single dose is given subcutaneously 72 hours after the mice are infected with Plasmodium berghei. At this time a 10-15 percent parasitemia has developed; the disease is well established but has not produced sufficient debility to alter the response of the host to toxic effects of the drug on test. Since treatment is withheld for three days to permit the infection to become well established and death occurs in untreated controls within 6 to 8 days, it is believed that this system presents a candidate compound with the maximum challenge. In order to check factors such as changes in the infectivity of Plasmodium berghei or in the susceptibility of the host or to detect technical errors, a group of infected animals treated with pyrimethamine at dose levels producing definite increases in survival time is included as a positive control in every experiment.
In each experiment test compounds are administered in graded doses. […] However, if an active drug is toxic for the host, its toxicity may become a limiting factor; continued increases in dose levels also increase the toxic effects and may result in the diminution of survival times. Deaths prior to the sixth day, when untreated controls begin to die, are regarded as non-parasitic and become the basis for the interpretation that the drug is toxic. Treated animals are kept under observation for 60 days. Survivors at the end of this period of time are considered as cured.
An increase of 100% in mean survival time is considered the minimum effective response for a candidate compound. In calculating mean survival time, toxic deaths and 60 day survivors are not included.

[2] = system: Plasmodium cynomolgi (strain B); assay: Radical Curative Test in Rhesus Monkeys, SEATO Medical Research Laboratory; type: in vivo, Indian rhesus monkeys; conditions: for Cures / Molar Primaquine Index by Regression Analysis: Table 2; for Molar Primaquine Index by Regression Analysis: ratio of molar ED50, relative to primaquine; for Cures (C): Table 8, Seato
Procedure: Radical Curative Test in Rhesus Monkeys, SEATO Medical Research Laboratory, Bangkok,
This test is designed to evaluate the tissue schizonticidal (radical curative) activity of test compounds. Well-conditioned Indian rhesus monkeys of either sex weighing 2-4 Kg are utilized. Plasmodium cynomolgi (strain B) sporozoites are prepared by grinding heavily infected Anopheles dirus salivary glands in 1:1 monkey serum-saline vehicle.
Monkeys are infected by I.V. injection of 10^6 freshly isolated P. cynomolgi sporozoites on day 0. A rapidly rising parasitemia develops after a 7 to 9 day prepatient period, and administration of the test drug is initiated when the rising parasite count exceeds 5000 per mm^3 (typically day 10-12). Test drugs are administered orally (by nasogastric intubation) once daily for 7 consecutive days in aqueous solution or, if insoluble, in suspension in 0.3% methylcellulose solution. Chloroquine diphosphate (3.1 mg of base/kg orally per day) is always administered concurrently with the test drug for 7 days to eliminate blood schizonts. Thus any tissue schizonticidal activity of the test drug will always be apparent even if it lacks blood schizonticidal activity.
A vehicle control monkey and a positive drug control (primaquine) monkey are included in each group of inoculated monkeys.
The effect of the test drug is determined by counting blood parasites. Parasite counts are made daily through day 20, and every two days thereafter. Initially a clearance of blood parasites is observed due to the blood schizonticidal action of chloroquine. […] If there is no relapse within 20 days of the initial clearance of parasitemia, the monkey is splenectomized and its parasitemia followed for an additional 30 days. If there is no relapse within this period, the experiment is terminated and the monkey is considered "cured". Alternately, in some experiments, negative parasitemia was followed for 100 days without prior splenectomy. It has been determined that the splenectomy and non-splenectomy methods yield virtually identical results.
Primaquine diphosphate cures over 90% of monkeys in this test system when administered at a dose of 1.3 mg/kg of salt per day for 7 days ([…]) in combination with chloroquine.

[3] = system: Chesson strain of P. vivax; assay: Antimalarial activity against (trophozoite-induced) infections of the Chesson strain of P. vivax in the Aotus monkey; type: in vivo
P. berghei yoelli = assay: Causal prophylactic activity against sporozoite induced P. berghei yoelli in the mouse; type: in vivo; conditions: for Cures: subcutaneous
methemoglobin = type: in vivo, Dog; conditions: for Peak % MHb / Slope of MHb Formation / Time of Peak MHb / MHb Disappearance Half-Time / MHb Production as AUC Corrected for Baseline: oral capsule, days 0-3, 3 mg/kg primaquine base per day or molar equivalent; for Peak % MHb / Slope of MHb Formation / Time of Peak MHb / MHb Production as AUC Corrected for Baseline: means differ significantly (p <.05); for MHb Disappearance Half-Time: no difference in the means; for MHb Production as AUC Corrected for Baseline: total methemoglobin production
Procedure: ^a Primaquine, Comparative Compound, or Compound X, were administered
orally by capsule for four days on days 0, 1, 2 and 3 at a dose of 3 mg/k
primaquine base per day or the molar equivalent.
^e Total methemoglobin production expressed as mg of MHb/ml of
blood/hr for a total of 2 days after administration of the first dose.
^f Area under the % methemoglobin versus time curve (AUC).

[4] = Acute toxicity in the rat by oral or intraperitoneal administration; conditions: for LD50 (95% Confidence Limit): Rat
[5] = system: Plasmodium berghei KBG 173; conditions: dose levels as low as; cited from earlier work
[6] = P. cynomolgi, Rhesus, 0.0316 mg/kg × 7 of salt
[7] = P. cynomolgi, Rhesus, 0.10 mg/kg × 7 of salt
[8] = P. cynomolgi, Rhesus, 0.316 mg/kg × 7 of salt
[9] = P. cynomolgi, Rhesus, 1.0 mg/kg × 7 of salt

COc1cc(NC(C)CCCN)c2nccc(C)c2c1Oc1cccc(C(F)(F)F)c1.O=C(O)CCC(=O)O (stereo not shown) [Comparative Compound, 8-[(4-amino-1-methylbutyl)amino]-6-methoxy-4-methyl-5-(3-trifluoromethylphenoxy)quinoline succinate]
ΔMST ([1]; 5 mg/kg): 6 days | ΔMST ([1]; 10 mg/kg): 4 days | ΔMST ([1]; 20 mg/kg): 10 days | Cures [2, 6]: 0/2 | Cures [2, 7]: 0/2 | Cures [2, 8]: 2/2 | Cures [2, 9]: 2/2 | Molar Primaquine Index by Regression Analysis [2]: 6.8 | Cures ([3]; 1 mg/kg × 3 of base): 1/3 | Cures ([3]; 2 mg/kg × 3 of base): 5/5 | Cures ([3]; 4 mg/kg × 3 of base): 4/4 | Cures ([3]; 16 mg/kg × 3 of base): 3/3 | Cures (P. berghei yoelli; 2.5 mg/kg of salt): 6/15 | Cures (P. berghei yoelli; 10 mg/kg of salt): 8/20 | Cures (P. berghei yoelli; 40 mg/kg of salt): 13/15 | Cures (P. berghei yoelli; 160 mg/kg of salt): 5/5 | increase of peak methemoglobin level versus Compound X (methemoglobin; Table 7, equimolar doses): 56% | peak level of methemoglobin (methemoglobin; Table 7, equimolar doses): 25% | Peak % MHb (methemoglobin): 25.3 ± 8.30% | Slope of MHb Formation (methemoglobin): 0.55 ± 0.28 | Time of Peak MHb (methemoglobin): 9.00 ± 1.73 days | MHb Disappearance Half-Time (methemoglobin): 9.14 ± 2.42 days | MHb Production as AUC Corrected for Baseline (methemoglobin): 14,566 ± 5,475 mg of MHb/ml of blood/hr | LD50 (95% Confidence Limit) ([4]; female, I.P.): 54 (42-71) mg/kg (Salt) | LD50 (95% Confidence Limit) ([4]; female, oral): 401 (368-447) mg/kg (Salt) | LD50 (95% Confidence Limit) ([4]; male, I.P.): 86 (65-109) mg/kg (Salt)

COc1cc(C)c2c(Oc3cccc(C(F)(F)F)c3)c(OC)cc(NC(C)CCCN)c2n1.O=C(O)CCC(=O)O (stereo not shown) [Compound X, 8-(4-Amino-1-methylbutylamino)-2,6-dimethoxy-4-methyl-5-(3-trifluoromethylphenoxy)quinoline Succinate]
blood schizonticidal activity in the mouse, in words [1]: blood schizonticidal activity in the mouse similar to the Comparative Compound | ΔMST ([1]; 5 mg/kg): 4 days | ΔMST ([1]; 10 mg/kg): 6 days | ΔMST ([1]; 20 mg/kg): 9 days | Cures [2, 6]: 0/2 | Cures [2, 7]: 2/4 | Cures [2, 8]: 4/4 | Cures [2, 9]: 2/2 | Molar Primaquine Index by Regression Analysis [2]: 12.8 | Cures (C) ([2]; P. cynomolgi, 0.0316 mg/kg (×7)): 0/2 | Cures (C) ([2]; P. cynomolgi, 0.1 mg/kg (×7)): 2/4 | Cures (C) ([2]; P. cynomolgi, 0.316 mg/kg (×7)): 4/4 | Cures (C) ([2]; P. cynomolgi, 1.0 mg/kg (×7)): 2/2 | potency relative to primaquine diphosphate, molar basis ([2]; calculated by regression analysis, P. cynomolgi, Rhesus): 12.8 times | potency relative to Comparative Compound ([2]; radical curative, P. cynomolgi, Rhesus): approximately two | Cures ([3]; 1 mg/kg × 3 of base): 2/2 | Cures ([3]; 4 mg/kg × 3 of base): 4/4 | Cures ([3]; 16 mg/kg × 3 of base): 3/3 | Cures ([3]; 32 mg/kg × 3 of base): 1/1 | blood schizonticidal activity in words ([3]; Table 3, Succinate): much greater blood schizonticidal activity than primaquine; also recorded: slightly better activity than the Comparative Compound | Cures (P. berghei yoelli; 2.5 mg/kg of salt): 0/5 | Cures (P. berghei yoelli; 10 mg/kg of salt): 4/10 | Cures (P. berghei yoelli; 40 mg/kg of salt): 9/10 | Cures (P. berghei yoelli; 160 mg/kg of salt): 5/5 | prophylactic activity in words (P. berghei yoelli; Table 5, Succinate): showed prophylactic activity; also recorded: slightly less than that observed with the Comparative Compound | total methemoglobin formation (area under the curve), less than Comparative Compound (methemoglobin; Table 7, 46% less): 46% | methemoglobin-forming property in words (methemoglobin; Table 7, Succinate): significantly less toxic in terms of methemoglobinemia | peak level of methemoglobin (methemoglobin; Table 7, equimolar doses): 16% | methemoglobin-forming property in words (methemoglobin; Table 7, listed as Compound X succinate, Succinate): much less potent methemoglobin-forming compound than the Comparative Compound | MHb Disappearance Half-Time, individual dogs (methemoglobin; footnote h, data of single dogs of the group, Succinate): 5.08 days and 7.71 days and 23.30 days | Peak % MHb (methemoglobin): 16.0 ± 7.72% | Slope of MHb Formation (methemoglobin): 0.61 ± 0.10 | Time of Peak MHb (methemoglobin): 6.83 ± 0.72 days | MHb Disappearance Half-Time (methemoglobin): 12.03 ± 9.85 days | MHb Production as AUC Corrected for Baseline (methemoglobin): 7,887 ± 3,609 mg of MHb/ml of blood/hr | LD50 (95% Confidence Limit) ([4]; female, I.P.): 71 (14-114) mg/kg (Salt) | LD50 (95% Confidence Limit) ([4]; female, oral): 416 (376-449) mg/kg (Salt) | LD50 (95% Confidence Limit) ([4]; male, I.P.): 102 (25-164) mg/kg (Salt) | LD50 (95% Confidence Limit) ([4]; male, oral): 429 (320-515) mg/kg (Salt) | acute toxicity in words ([4]; Table 6, orally or intraperitoneally): less toxic than primaquine or the Comparative Compound

OC(c1cc(C(F)(F)F)nc2c(C(F)(F)F)cccc12)C1CCCCN1 (stereo not shown) [mefloquine]
curative dose, Rane Mouse Test [5]: 20 mg/kg
